Test systems include SNB-19 CNS; K-562 leukemia; HOP-62 NSCLC; U251 CNS; SF-268 CNS; IGROV1 ovarian; 786-0 renal; HT29 colon; SK-MEL-28 melanoma; UACC-257 melanoma; TK-10 renal; LOX IMVI melanoma; CAKI-1 renal; NCI-H460 lung; MDA-N; SK-OV-3 ovarian; RXF 393 renal; UACC-62 melanoma; A549 NSCLC; MALME-3M melanoma.
Common to all, as to experiment: NCI anticancer screen, dose series, 48 h

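Following 48 hours of exposure in 96-well plates, responses at five concentrations were used to interpolate endpoints linearly. The concentration for full growth arrest is given as TGI.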

For `CN(C)/C=C/c1c2c(nc3ccccc13)C(=O)c1ccccc1C2=O`, the TGI in the test on SNB-19 CNS was 4.88 µM; with K-562 leukemia, over 100 µM; in the test with HOP-62 NSCLC, 1.32 µM; in the test with U251 CNS, 4.66 µM; with SF-268 CNS it was 5.26 µM; in the test on IGROV1 ovarian, 4.71 µM. Besides, the TGI in the test on 786-0 renal amounted to 5.51 µM; in the test on HT29 colon, 4.85 µM; with SK-MEL-28 melanoma it was 0.55 µM; in the test with UACC-257 melanoma, 1.77 µM; in the test on TK-10 renal, 6 µM; in the test with LOX IMVI melanoma, 0.294 µM. Besides, the TGI in the test with CAKI-1 renal stood at 6.31 µM; in the test with NCI-H460 lung it was 1.4 µM; in the test on MDA-N it was 0.957 µM; in the test on SK-OV-3 ovarian, 11.7 µM; in the test with RXF 393 renal it was 9.83 µM; in the test on UACC-62 melanoma it was 0.739 µM. In the test on A549 NSCLC, this compound displayed a TGI of 8.72 µM.

For `CCn1c(=O)c2c3cc(OC(C)=O)ccc3oc2c2ccc(OC(C)=O)cc21`, the TGI with SNB-19 CNS, in the test on K-562 leukemia, with HOP-62 NSCLC, in the test on U251 CNS, in the test with SF-268 CNS and in the test on IGROV1 ovarian was over 100 µM throughout. Also, the TGI in the test on 786-0 renal, in the test on HT29 colon, with SK-MEL-28 melanoma, in the test on UACC-257 melanoma, in the test with TK-10 renal and with CAKI-1 renal was over 100 µM throughout. For the same compound, the TGI in the test on NCI-H460 lung, with MALME-3M melanoma, with MDA-N, in the test with SK-OV-3 ovarian, with RXF 393 renal and in the test on UACC-62 melanoma was over 100 µM in each case. Besides, in the test with A549 NSCLC, the TGI is over 100 µM.

For the compound `COc1ccc(-c2nc3cc(C(F)(F)F)ccc3n2CC2CCCN3CCCCC23)cc1` (stereo not given), the TGI in the test with K-562 leukemia stood at 28 µM; in the test on HOP-62 NSCLC it was 38.5 µM; with U251 CNS, 30.7 µM; with SF-268 CNS, 28.6 µM; in the test on IGROV1 ovarian it was 26.9 µM; in the test on 786-0 renal, 35.6 µM. Besides, the TGI in the test with HT29 colon is 26.1 µM; in the test on SK-MEL-28 melanoma, 28.2 µM; in the test with UACC-257 melanoma, 26.7 µM; in the test with TK-10 renal it was 30.2 µM; in the test with LOX IMVI melanoma, 28.3 µM; in the test with CAKI-1 renal, 59.6 µM. The TGI in the test with NCI-H460 lung is 29.2 µM; with MDA-N, 33.4 µM; in the test with SK-OV-3 ovarian, 33.7 µM; in the test with RXF 393 renal, 33.8 µM.

Regarding `CC(C)N(/C(F)=N\C(=O)Nc1ccccc1C(F)(F)F)C(C)C`, the TGI in the test on SNB-19 CNS, with K-562 leukemia, in the test with HOP-62 NSCLC, in the test with U251 CNS, in the test on SF-268 CNS and in the test on IGROV1 ovarian was over 100 µM in each case. Moreover, the TGI in the test with 786-0 renal, in the test on HT29 colon, with SK-MEL-28 melanoma, in the test with UACC-257 melanoma, in the test on TK-10 renal and in the test on LOX IMVI melanoma was over 100 µM throughout. Moreover, the TGI in the test with CAKI-1 renal, in the test on NCI-H460 lung, with MALME-3M melanoma, in the test on MDA-N, in the test with SK-OV-3 ovarian and with A549 NSCLC was over 100 µM throughout.

Turning to `Cc1ccc(NC(=O)/C(=N\NC(N)=O)c2c(O)c3ccccc3[nH]c2=O)cc1`, the TGI in the test on SNB-19 CNS, in the test on K-562 leukemia, in the test with U251 CNS, in the test on SF-268 CNS, in the test on 786-0 renal and in the test on HT29 colon was over 100 µM each time. Besides, the TGI in the test with SK-MEL-28 melanoma, in the test with UACC-257 melanoma, with LOX IMVI melanoma, in the test on CAKI-1 renal, with NCI-H460 lung and with MDA-N was over 100 µM in each case. For the same compound, the TGI with SK-OV-3 ovarian, in the test with RXF 393 renal, in the test on UACC-62 melanoma and in the test on A549 NSCLC was over 100 µM each time.

As for `CC(=O)OC1OC(c2ccoc2)C[C@@]12C1CCC3O[C@]3(C)[C@]1(C)C[C@H](OC(C)=O)[C@H]2C` (stereo not given in full), the TGI with SNB-19 CNS, in the test with K-562 leukemia, in the test on U251 CNS, with SF-268 CNS, in the test on IGROV1 ovarian and in the test with 786-0 renal was over 75 µM each time. For the same compound, the TGI in the test on HT29 colon, in the test on SK-MEL-28 melanoma, in the test with UACC-257 melanoma, in the test with TK-10 renal, with LOX IMVI melanoma and in the test on CAKI-1 renal was over 75 µM throughout. Further, the TGI with NCI-H460 lung, with MDA-N, with SK-OV-3 ovarian, with RXF 393 renal, in the test on UACC-62 melanoma and with A549 NSCLC was over 75 µM each time.

On to `CC(C)(O)CCc1ccc(O)c2c(=O)c3c(O)c4c(cc3oc12)O[C@H]1OC=C[C@@]41O`, for which the TGI in the test with SNB-19 CNS is over 59.5 µM; with K-562 leukemia, over 100 µM; with HOP-62 NSCLC it was 2.43 µM; with U251 CNS it was 0.0396 µM; in the test on SF-268 CNS it was 8.54 µM; with IGROV1 ovarian it was 0.252 µM. The TGI with 786-0 renal is over 64 µM; in the test with HT29 colon it was over 100 µM; with SK-MEL-28 melanoma, 1.38 µM; with UACC-257 melanoma it was 0.291 µM; in the test with TK-10 renal it was over 100 µM; in the test on LOX IMVI melanoma it was over 100 µM. Also, the TGI was under 0.0318 µM in the test with CAKI-1 renal; 20.7 µM in the test with NCI-H460 lung; 0.0142 µM in the test with MDA-N; 13.2 µM in the test on SK-OV-3 ovarian; 1.44 µM with RXF 393 renal; under 0.01 µM with UACC-62 melanoma. In the test on A549 NSCLC, this compound showed a TGI of over 100 µM.

The record behind these values is PubChem BioAssay (NCI).
